Laboratory results from US12589161B2, “PEGylated synthetic KL4 peptide, compositions and methods thereof” (THE UNIVERSITY OF HONG KONG, priority 2019, dated 2026).
Where two headings read alike, the source gives them in different places. Non-standard residues stand in square brackets, D forms with d. Residues, ends and D or L forms follow the SMILES beside them. PEG12 = NCCOCCOCCOCCOCCOCCOCCOCCOCCOCCOCCOCCOCCC(=O)O; PEG6 = NCCOCCOCCOCCOCCOCCOCCC(=O)O

Tests used:
A549 cells [1] = assay: Cellular uptake study of mRNA (flow cytometry and confocal microscopy); format: cell-based, human; settings: 10:1 ratio (w/w), cyanine-5 labelled mRNA, 4 h post-transfection, flow cytometry
Experimental: The cellular uptake of the mRNA was studied by flow cytometry and confocal microscopy. For the flow cytometry study, A549 cells were seeded in 24-well plates at a density of 0.5×10^5 cells per well one day before the experiment. The cells were transfected with naked mRNA, KL4/mRNA and PEG12KL4/mRNA complexes at 10:1 ratio (w/w) in OptiMEM I reduced serum medium containing 1 μg of cyanine-5 labelled EGFP mRNA per well. After 4 h of incubation, the cells were washed and trypsinized. Cells from three separate wells of the same treatment were combined and suspended in culture medium. The extracellular florescent signal was quenched with 0.04% (w/v) trypan blue solution. After 2 min, the cells were washed, resuspended in 300 μL of PBS and sieved with a sterile 40 μm cell strainer (BD Biosciences, CA, USA). The fluorescence intensity was analyzed by flow cytometry (BD FACSCantoII Analyzer, BD Biosciences, CA, USA). At least 1×10^4 single cells were analyzed for each sample. For the confocal study, A549 cells were seeded in a 35 mm Mattek glass bottom culture dish (Mattek Corp. Ashland, MA, USA) at a density of 1×10^5 cells per well one day before imaging. Naked mRNA, KL4/mRNA and PEG12KL4/mRNA complexes at 10:1 ratio (w/w) were prepared in Opti-MEM I reduced serum medium with 2 μg of cyanine-5 labelled mRNA per dish. […]

[2] = Circular dichroism, temperature ramping; format: physicochemical; settings: 6 to 94 °C, 5 mM Tris-HCl buffer, 0.1 mg/mL
Experimental: KL4 and PEG6KL4 peptides were dissolved in 5 mM Tris-HCl buffer at a final concentration of 0.1 mg/mL in 0.1% (v/v) DMSO. PEG12KL4 and PEG24KL4 were dissolved in 5 mM Tris-HCl buffer at a final concentration of 0.1 mg/mL without DMSO. CD spectra were acquired on a Chirascan™ Spectrometer (Applied Photophysics, Leatherhead, UK). For temperature ramping experiment, far-UV CD spectra were obtained with the peptide solution incubated from 6° C. to 94° C. Spectra were recorded from 260 to 190 nm using a 0.5 mm path length and were processed using Chirascan software where a spectrum of the peptide free solution was subtracted and Savitzky-Gorlay smoothing applied.

[3] = Charge ratio of peptide to siRNA at 10:1 weight ratio
Text: This is partly because the uncharged PEG chains reduced the effective charge ratio between cationic KL4 and siRNA [77]. The charge ratios of KL4, PEG6KL4, PEG12KL4 and PEG24KL4 to siRNA at 10:1 weight ratio are 6.1 to 1, 5.5 to 1, 4.9 to 1 and 4.2 to 1, respectively. […] The molecular weight of the PEG used in this study, which is below 1,200 Da, is relatively low compared with others where PEG of 2,000 to 5,000 Da was often used. Therefore, PEGylated KL4 peptide/siRNA complexes remained to be positively charged, which is suitable for cellular entry. […] In addition, PEG also provides steric hindrance between the interaction of KL4 and siRNA that weakens the binding, promoting the release of siRNA from the complexes after the addition of heparin.

A549 cells [4] = assay: Cellular uptake of siRNA by flow cytometry on A549 cells; format: cell-based, human; settings: A549, 10:1 ratio, fluorescently labelled siRNA, 4 h
Experimental: Flow cytometry was used to investigate the cellular uptake of peptide/siRNA complexes. A549 cells and Calu-3 cells were seeded in six-well plates at a density of 2.5×10^5 cells and 4×10^5 cells per well, respectively, one day before the experiment. The cells were transfected with peptide/siRNA complexes at 10:1 ratio (w/w) containing fluorescently labelled siRNA (150 nM) in Opti-MEM I reduced serum medium. The transfection medium was removed after 4 h of incubation, and the cells were washed with PBS once. The cells were trypsinized by 0.25% (w/v) trypsin-EDTA and suspended in culture medium. The extracellular fluorescence signal was quenched with 0.04% (w/v) trypan blue solution. After 2 min of incubation, the cells were washed with PBS thrice. The cells were resuspended in 500 μL of PBS and sieved with a sterile 40 μm cell strainer (BD Biosciences, CA, USA). The fluorescence intensity was analyzed by flow cytometry with PE/PI laser (585/42 nm) (BD FACSCantoII Analyzer, BD Biosciences, CA, USA). At least 10,000 single cells were analyzed for each sample.

[5] = Solubility of peptides in water; format: physicochemical
A549 cells [6] = assay: GAPDH siRNA transfection on A549 cells (Western blot); format: cell-based, human; settings: for Comparison within the same peptide prepared at different peptide to siRNA ratios: A549, one-way ANOVA, Tukey, n.s. not significant, * p<0.05, ** p<0.01, *** p<0.001; for inhibition of GAPDH protein: A549, 25 nM siRNA, 10:1 ratio (w/w); for siRNA transfection efficiency among the four peptides at different amounts of siRNA: A549, 10:1 ratio, 6 to 100 nM siRNA
Experimental: A549 cells were seeded in 6-well plates at a density of 1.5×10^5 cells per well one day before transfection. The cells were transfected with peptide/siRNA complexes containing 50 pmol of GAPDH siRNA or negative control siRNA per well (50 nM). The complexes were prepared in OptiMEM I reduced serum medium at 10:1, 15:1 and 20:1 ratios (w/w). Lipofectamine 2000 was used as control. The complexes were added to the cells and incubated for 4 h at 5% CO2, 37° C. before being washed with PBS. The transfection medium was removed and replaced with serum supplemented cell culture medium. At 72 h post-transfection, the cells were washed and lysed with cell lysis buffer. Western blotting assay was performed to analyze the level of GAPDH protein. The GAPDH expression was analyzed by densitometry of Western Blots using Image J software. The remaining GAPDH expression was the density of the GAPDH band of positive control (normalized with beta-actin of the corresponding sample) divided by the GAPDH band of negative control (normalized with the beta actin band of the corresponding sample).
(§1) A549 cells, BEAS-2B and Calu-3 cells were seeded in six-well plates at a density of 1.6×10^5 cells per well, 2×10^5 cells per well and 3×10^5 cells per well, respectively, one to two days before transfection. The cells were transfected with peptide/siRNA complexes at 5:1 to 20:1 ratio (w/w) containing GAPDH siRNA or negative control siRNA (6 to 100 nM) in OptiMEM I reduced serum medium. Lipofectamine 2000 was used for comparison. After 5 h of incubation, the cells were washed and replaced with serum supplemented cell culture medium. At 72 h post-transfection, the cells were washed and lysed with cell lysis buffer. Western blotting assay was performed to analyze the level of GAPDH protein as previously described. The GAPDH expression was analyzed by densitometry of Western blots using ImageJ software (Version 1.52). The GAPDH expression was normalized with the expression of […]-actin of the corresponding sample. The remaining GAPDH expression was the normalized GAPDH expression of positive control divided by the normalized GAPDH expression of negative control.

BEAS-2B cells [7] = assay: GAPDH siRNA transfection on BEAS-2B cells (Western blot); format: cell-based, human; settings: for siRNA transfection efficiency: 50 nM siRNA, 72 h; for Comparison within the same peptide prepared at different peptide to siRNA ratios: one-way ANOVA, Tukey, n.s. not significant, * p<0.05, ** p<0.01, *** p<0.001
Experimental: as §1

Calu-3 cells = assay: GAPDH siRNA transfection on Calu-3 cells (Western blot); format: cell-based, human; settings: one-way ANOVA, Tukey, n.s. not significant, * p<0.05, ** p<0.01, *** p<0.001
Experimental: as §1

A549 cells [8] = assay: Luciferase mRNA transfection in vitro on A549 cells; format: cell-based, human; settings: 24 h post-transfection
Experimental: (§2) A549 cells and BEAS-2B cells were seeded in 24-well plates at a density of 0.5×10^5 and 1×10^5 cells per well, respectively, for overnight. The KL4/mRNA and PEG12KL4/mRNA complexes formed at 5:1 to 30:1 ratio (w/w) in OptiMEM I reduced serum medium were added to the cells at 0.5 or 1 μg mRNA per well. Naked mRNA and lipoplexes (Lipofectamine 2000/mRNA complexes) were used as controls. After 4 h of incubation, the transfection medium was replaced with serum supplemented cell culture medium. At 24 h post-transfection, the cells were washed and lysed with reporter cell lysis buffer. The luciferase expression was detected using the luciferase assay system according to the manufacturer's protocol. The luminescence was measured with luminometer (SpectraMax L Microplate Reader, Molecular devices, CA, USA) and the protein concentrations of the cell lysates were quantified by Bradford protein assay. The results were expressed as relative light unit (RLU) per mg of total protein. To study the transfection efficiency of PEG12KL4/mRNA in SD and SFD powder formulations, the powders were reconstituted before adding to the cells. The luciferase expression was examined at 24 h post-transfection as described above.

BEAS-2B cells [9] = assay: Luciferase mRNA transfection in vitro on BEAS-2B cells; format: cell-based, human; settings: 24 h post-transfection
Experimental: as §2

Row | SMILES | percentage of cells with mRNA uptake (A549 cells [1]) | secondary structure at different temperatures (far-UV CD) [2] | charge ratio of peptide to siRNA [3] | percentage of cells with siRNA uptake (A549 cells [4]) | solubility ([5]; water) | Comparison within the same peptide prepared at different peptide to siRNA ratios (A549 cells [6]) | siRNA transfection efficiency (BEAS-2B cells [7]) | Comparison within the same peptide prepared at different peptide to siRNA ratios (BEAS-2B cells [7]) | Comparison within the same peptide prepared at different peptide to siRNA ratios (Calu-3 cells) | solubility [5] | inhibition of GAPDH protein (A549 cells [6]; 72 h) | siRNA transfection efficiency among the four peptides at different amounts of siRNA (A549 cells [6]; 72 h) | mRNA transfection efficiency compared with Lipofectamine 2000 (A549 cells [8]) | mRNA transfection efficiency compared with Lipofectamine 2000 (BEAS-2B cells [9]) | siRNA transfection compared with KL4 (A549 cells [6]; A549, 10:1, 15:1 and 20:1 ratios, 50 pmol siRNA, 72 h, n=1 (FIG. 13))
1 | CC(C)C[C@H](NC(=O)[C@H](CC(C)C)NC(=O)[C@H](CC(C)C)NC(=O)[C@H](CC(C)C)NC(=O)[C@H](CCCCN)NC(=O)[C@H](CC(C)C)NC(=O)[C@H](CC(C)C)NC(=O)[C@H](CC(C)C)NC(=O)[C@H](CC(C)C)NC(=O)[C@H](CCCCN)NC(=O)[C@H](CC(C)C)NC(=O)[C@H](CC(C)C)NC(=O)[C@H](CC(C)C)NC(=O)[C@H](CC(C)C)NC(=O)[C@H](CCCCN)NC(=O)[C@H](CC(C)C)NC(=O)[C@H](CC(C)C)NC(=O)[C@H](CC(C)C)NC(=O)[C@H](CC(C)C)NC(=O)[C@@H](N)CCCCN)C(=O)N[C@@H](CCCCN)C(N)=O [KL4, reference compound] (H-KLLLLKLLLLKLLLLKLLLLK-NH2; N-terminus assumed) | 15% | the alpha-helical structure gradually turned to a beta-sheet conformation | 6.1 to 1 | less than 20% | < 1000 µg/mL | n.s. | – | – | – | – | – | – | – | – | –
2 | CC(C)C[C@H](NC(=O)[C@H](CC(C)C)NC(=O)[C@H](CC(C)C)NC(=O)[C@H](CC(C)C)NC(=O)[C@H](CCCCN)NC(=O)[C@H](CC(C)C)NC(=O)[C@H](CC(C)C)NC(=O)[C@H](CC(C)C)NC(=O)[C@H](CC(C)C)NC(=O)[C@H](CCCCN)NC(=O)[C@H](CC(C)C)NC(=O)[C@H](CC(C)C)NC(=O)[C@H](CC(C)C)NC(=O)[C@H](CC(C)C)NC(=O)[C@H](CCCCN)NC(=O)[C@H](CC(C)C)NC(=O)[C@H](CC(C)C)NC(=O)[C@H](CC(C)C)NC(=O)[C@H](CC(C)C)NC(=O)[C@H](CCCCN)NC(=O)CCOCCOCCOCCOCCOCCOCCN)C(=O)N[C@@H](CCCCN)C(N)=O [PEG6KL4] (H-[PEG6]KLLLLKLLLLKLLLLKLLLLK-NH2; N-terminus assumed) | – | adopted an alpha-helical structure at all tested temperatures | 5.5 to 1 | – | – | n.s. | significantly higher transfection efficiency compared with lipofectamine 2000 | n.s. | n.s. | < 1000 µg/mL | 80% | most effective in transfecting siRNA | – | – | –
3 | CC(C)C[C@H](NC(=O)[C@H](CC(C)C)NC(=O)[C@H](CC(C)C)NC(=O)[C@H](CC(C)C)NC(=O)[C@H](CCCCN)NC(=O)[C@H](CC(C)C)NC(=O)[C@H](CC(C)C)NC(=O)[C@H](CC(C)C)NC(=O)[C@H](CC(C)C)NC(=O)[C@H](CCCCN)NC(=O)[C@H](CC(C)C)NC(=O)[C@H](CC(C)C)NC(=O)[C@H](CC(C)C)NC(=O)[C@H](CC(C)C)NC(=O)[C@H](CCCCN)NC(=O)[C@H](CC(C)C)NC(=O)[C@H](CC(C)C)NC(=O)[C@H](CC(C)C)NC(=O)[C@H](CC(C)C)NC(=O)[C@H](CCCCN)NC(=O)CCOCCOCCOCCOCCOCCOCCOCCOCCOCCOCCOCCOCCN)C(=O)N[C@@H](CCCCN)C(N)=O [PEG12KL4] (H-[PEG12]KLLLLKLLLLKLLLLKLLLLK-NH2; N-terminus assumed) | Over 60% | more sensitive in response to temperature compared with the other peptides | 4.9 to 1 | – | – | n.s. | significantly higher transfection efficiency compared with lipofectamine 2000 | n.s. | – | > 2000 µg/mL | 80% | most effective in transfecting siRNA | comparable to that of Lipofectamine 2000 | comparable to that of Lipofectamine 2000 | superior to KL4 in mediating siRNA transfection at all tested ratios
